Test results as given in patent US11377469B2, “CD73 inhibitors” (ORIC Pharmaceuticals, Inc., priority 2017, dated 2022).
pIC50: −log10 of the molar value.

Each compound was assayed against CD73 (Homo sapiens (Human), UniProt P21589) (assay: Biochemical Assay (CD73 inhibition, AMP hydrolysis, Malachite Green readout)). Settings: CD73 0.3208 nM, AMP 15 μM, Tris-HCl pH 7.4, Malachite Green absorbance.
Protocol: Example A1: Biochemical Assay
Assay Reaction Conditions
• Assay Volume: 70 μl • Reaction Volume: 50 μl • CD73: 0.3208 nM • AMP: 15 μM • Assay Buffer: 2 5 mM Tris-HCL, pH 7.4, 0.01% Brij-35, 0.01% BSA, 5 mM MgCl2 Assay Procedure:
Made dose titration of testing compounds in assay buffer, 10 points ½ log titrations in duplicates starting at 100 μM.
Added 25 μl of CD73 to each well for a final concentration of 320 pM.
Incubated at RT for 15 min.
Added 25 μl of AMP to each well for a final concentration of 15 μM.
Incubated at RT for 10 min.
Added 10 μl of Malachite Green Reagent A, incubate at RT for 10 min.
Added 10 μl of Malachite Green Reagent B, incubate at RT for 45 min. […]
The ability of the compounds disclosed herein to inhibit CD73 activity was quantified and the respective IC50 values were determined. Table 1 provides the biochemical IC50 values of compounds disclosed herein.

Chain of CD73 (P21589 27-574): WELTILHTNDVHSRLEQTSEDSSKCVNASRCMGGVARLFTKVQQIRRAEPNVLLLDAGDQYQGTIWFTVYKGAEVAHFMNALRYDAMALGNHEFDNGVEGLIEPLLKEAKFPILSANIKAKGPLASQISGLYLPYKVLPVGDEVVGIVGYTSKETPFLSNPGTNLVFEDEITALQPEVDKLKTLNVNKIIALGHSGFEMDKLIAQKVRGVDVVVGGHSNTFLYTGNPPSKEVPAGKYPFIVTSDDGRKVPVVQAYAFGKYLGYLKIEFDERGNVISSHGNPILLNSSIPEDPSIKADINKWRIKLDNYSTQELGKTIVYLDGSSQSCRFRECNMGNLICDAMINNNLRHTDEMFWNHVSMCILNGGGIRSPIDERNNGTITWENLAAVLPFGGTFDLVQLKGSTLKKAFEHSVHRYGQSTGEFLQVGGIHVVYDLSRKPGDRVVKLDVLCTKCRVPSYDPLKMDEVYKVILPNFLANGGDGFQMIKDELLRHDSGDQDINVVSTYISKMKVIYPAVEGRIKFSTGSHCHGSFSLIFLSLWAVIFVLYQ

pIC50 | Compound
6.00 to 6.30 | O=P(O)(O)CCC[C@H]1O[C@@H](n2ncc3c(NC4CCCC4)nc(Cl)nc32)[C@H](O)[C@@H]1O [Example 101, (3-((2R,3S,4R,5R)-5-(6-Chloro-4-(cyclopentylamino)-1H-pyrazolo[3,4-d]pyrimidin-1-yl)-3,4-dihydroxytetrahydrofuran-2-yl)propyl)phosphonic acid]
≥ 6.30 | O=P(O)(O)COC[C@H]1O[C@@H](n2ncc3c(NCC4CC4)nc(Cl)nc32)[C@H](O)[C@@H]1O [Example 38, ((((2R,3S,4R,5R)-5-(6-chloro-4-((cyclopropylmethyl)amino)-1H-pyrazolo[3,4-d]pyrimidin-1-yl)-3,4-dihydroxytetrahydrofuran-2-yl)methoxy)methyl)phosphonic acid]
6.00 to 6.30 | C[C@@]1(O)[C@@H](COCP(=O)(O)O)O[C@@H](n2ncc3c(NCc4ccccc4Cl)nc(Cl)nc32)[C@@H]1O [Example 19, ((((2R,3S,4R,5R)-5-(6-Chloro-4-((2-chlorobenzyl)amino)-1H-pyrazolo[3,4-d]pyrimidin-1-yl)-3,4-dihydroxy-3-methyltetrahydrofuran-2-yl)methoxy)methyl)phosphonic acid]
≥ 6.30 | C[C@H]1CCC[C@H]1Nc1nc(Cl)nc2c1cnn2[C@@H]1O[C@H](CS(=O)(=O)CP(=O)(O)O)[C@@H](O)[C@H]1O [Example 134, (((((2S,3S,4R,5R)-5-(6-chloro-4-(((1R,2S)-2-methylcyclopentyl)amino)-1H-pyrazolo[3,4-d]pyrimidin-1-yl)-3,4-dihydroxytetrahydrofuran-2-yl)methyl)sulfonyl)methyl)phosphonic acid]
< 6.00 | C[C@H](OCP(=O)(O)O)[C@H]1O[C@@H](n2ncc3c(NCc4ccccc4Cl)nc(Cl)nc32)[C@H](O)[C@@H]1O [Example 50, (((S)-1-((2S,3S,4R,5R)-5-(6-chloro-4-((2-chlorobenzyl)amino)-1H-pyrazolo[3,4-d]pyrimidin-1-yl)-3,4-dihydroxytetrahydrofuran-2-yl)ethoxy)methyl)phosphonic acid]
< 6.00 | O=P(O)(O)COCC[C@H]1O[C@@H](n2ncc3c(NCC4CC4)nc(Cl)nc32)[C@H](O)[C@@H]1O [Example 85, ((2-((2R,3S,4R,5R)-5-(6-chloro-4-((cyclopropylmethyl)amino)-1H-pyrazolo[3,4-d]pyrimidin-1-yl)-3,4-dihydroxytetrahydrofuran-2-yl)ethoxy)methyl)phosphonic acid]
6.00 to 6.30 | COc1nc(NCC2CC2)c2cnn([C@@H]3O[C@H](COCP(=O)(O)O)[C@@H](O)[C@H]3O)c2n1 [Example 82, ((((2R,3S,4R,5R)-5-(4-((cyclopropylmethyl)amino)-6-methoxy-1H-pyrazolo[3,4-d]pyrimidin-1-yl)-3,4-dihydroxytetrahydrofuran-2-yl)methoxy)methyl)phosphonic acid]
6.00 to 6.30 | Nc1nc(Cl)nc2c1cnn2[C@@H]1O[C@H](COCP(=O)(O)O)[C@@H](O)[C@H]1O [Example 57, ((((2R,3S,4R,5R)-5-(4-amino-6-chloro-1H-pyrazolo[3,4-d]pyrimidin-1-yl)-3,4-dihydroxytetrahydrofuran-2-yl)methoxy)methyl)phosphonic acid]
≥ 6.30 | O=P(O)(O)COC[C@H]1O[C@@H](n2ncc3c(NCc4cccc5ncccc45)nc(Cl)nc32)[C@H](O)[C@@H]1O [Example 51, ((((2R,3S,4R,5R)-5-(6-chloro-4-((quinolin-5-ylmethyl)amino)-1H-pyrazolo[3,4-d]pyrimidin-1-yl)-3,4-dihydroxytetrahydrofuran-2-yl)methoxy)methyl)phosphonic acid]
≥ 6.30 | O=P(O)(O)COC[C@H]1O[C@@H](n2nnc3c(NC4CCCC4)nc(Cl)nc32)[C@H](O)[C@@H]1O [Example 95, ((((2R,3S,4R,5R)-5-(5-chloro-7-(cyclopentylamino)-3H-[1,2,3]triazolo[4,5-d]pyrimidin-3-yl)-3,4-dihydroxytetrahydrofuran-2-yl)methoxy)methyl)phosphonic acid]
≥ 6.30 | O=P(O)(O)COC[C@H]1O[C@@H](n2ccc3c(NC4CCCC4)nc(Cl)nc32)[C@H](O)[C@@H]1O [Example 137, ((((2R,3S,4R,5R)-5-(2-chloro-4-(cyclopentylamino)-7H-pyrrolo[2,3-d]pyrimidin-7-yl)-3,4-dihydroxytetrahydrofuran-2-yl)methoxy)methyl)phosphonic acid]
≥ 6.30 | N#CC1(CNc2nc(Cl)nc3c2cnn3[C@@H]2O[C@H](COCP(=O)(O)O)[C@@H](O)[C@H]2O)CC1 [Example 138, ((((2R,3S,4R,5R)-5-(6-chloro-4-(((1-cyanocyclopropyl)methyl)amino)-1H-pyrazolo[3,4-d]pyrimidin-1-yl)-3,4-dihydroxytetrahydrofuran-2-yl)methoxy)methyl)phosphonic acid]
≥ 6.30 | C[C@H](Nc1nc(Cl)nc2c1nnn2[C@@H]1O[C@H](CS(=O)(=O)CP(=O)(O)O)[C@@H](O)[C@H]1O)c1ccc(F)cc1 [Example 114]
≥ 6.30 | CN(CC1CC1)c1nc(Cl)nc2c1cnn2[C@@H]1O[C@H](COCP(=O)(O)O)[C@@H](O)[C@H]1O [Example 72, ((((2R,3S,4R,5R)-5-(6-chloro-4-((cyclopropylmethyl)(methyl)amino)-1H-pyrazolo[3,4-d]pyrimidin-1-yl)-3,4-dihydroxytetrahydrofuran-2-yl)methoxy)methyl)phosphonic acid]
≥ 6.30 | C[C@H](Nc1nc(Cl)nc2c1cnn2[C@@H]1O[C@H](CS(=O)(=O)CP(=O)(O)O)[C@@H](O)[C@H]1O)c1ccccc1Cl [Example 129, (((((2S,3S,4R,5R)-5-(6-chloro-4-(((S)-1-(2-chlorophenyl)ethyl)amino)-1H-pyrazolo[3,4-d]pyrimidin-1-yl)-3,4-dihydroxytetrahydrofuran-2-yl)methyl)sulfonyl)methyl)phosphonic acid]
< 6.00 | O=P(O)(O)CS(=O)(=O)CC[C@H]1O[C@@H](n2ncc3c(NCC4CC4)nc(Cl)nc32)[C@H](O)[C@@H]1O [Example 88, (((2-((2R,3S,4R,5R)-5-(6-chloro-4-((cyclopropylmethy)amino)-1H-pyrazolo[3,4-d]pyrimidin-1-yl)-3,4-dihydroxytetrahydrofuran-2-yl)ethyl)sulfonyl)methyl)phosphonic acid]
≥ 6.30 | O=P(O)(O)CS(=O)(=O)C[C@H]1O[C@@H](n2ncc3c(N[C@H]4CCc5ccccc54)nc(Cl)nc32)[C@H](O)[C@@H]1O [Example 123, (((((2S,3S,4R,5R)-5-(6-chloro-4-(((S)-2,3-dihydro-1H-inden-1-yl)amino)-1H-pyrazolo[3,4-d]pyrimidin-1-yl)-3,4-dihydroxytetrahydrofuran-2-yl)methyl)sulfonyl)methyl)phosphonic acid]
≥ 6.30 | O=P(O)(O)CS(=O)(=O)C[C@H]1O[C@@H](n2ncc3c(NC4CCC4)nc(Cl)nc32)[C@H](O)[C@@H]1O [Example 107, (((((2S,3S,4R,5R)-5-(6-chloro-4-(cyclobutylamino)-1H-pyrazolo[3,4-d]pyrimidin-1-yl)-3,4-dihydroxytetrahydrofuran-2-yl)methyl)sulfonyl)methyl)phosphonic acid]
≥ 6.30 | O=P(O)(O)CS(=O)(=O)C[C@H]1O[C@@H](n2nnc3c(NCc4ccc(F)cc4)nc(Cl)nc32)[C@H](O)[C@@H]1O [Example 119]
≥ 6.30 | CC(C)CNc1nc(Cl)nc2c1cnn2[C@@H]1O[C@H](COCP(=O)(O)O)[C@@H](O)[C@H]1O [Example 63, ((((2R,3S,4R,5R)-5-(6-chloro-4-(isobutylamino)-1H-pyrazolo[3,4-d]pyrimidin-1-yl)-3,4-dihydroxytetrahydrofuran-2-yl)methoxy)methyl)phosphonic acid]
≥ 6.30 | O=C(CP(=O)(O)O)OC[C@H]1O[C@@H](n2ncc3c(NCc4ccccc4Cl)nc(Cl)nc32)[C@H](O)[C@@H]1O [Example 1, (2-(((2R,3S,4R,5R)-5-(6-Chloro-4-((2-chlorobenzyl)amino)-1H-pyrazolo[3,4-d]pyrimidin-1-yl)-3,4-dihydroxytetrahydrofuran-2-yl)methoxy)-2-oxoethyl)phosphonic acid]
≥ 6.30 | O=P(O)(O)CS(=O)(=O)C[C@H]1O[C@@H](n2nnc3c(NC4Cc5ccccc5C4)nc(Cl)nc32)[C@H](O)[C@@H]1O [Example 121, (((((2S,3S,4R,5R)-5-(5-chloro-7-((2,3-dihydro-1H-inden-2-yl)amino)-3H-[1,2,3]triazolo[4,5-d]pyrimidin-3-yl)-3,4-dihydroxytetrahydrofuran-2-yl)methyl)sulfonyl)methyl)phosphonic acid]
≥ 6.30 | O=P(O)(O)CSC[C@H]1O[C@@H](n2ncc3c(NCc4ccccc4Cl)nc(Cl)nc32)[C@H](O)[C@@H]1O [Example 13, (((((2S,3S,4R,5R)-5-(6-Chloro-4-((2-chlorobenzyl)amino)-1H-pyrazolo[3,4-d]pyrimidin-1-yl)-3,4-dihydroxytetrahydrofuran-2-yl)methyl)thio)methyl)phosphonic acid]

Compound | pIC50
COP(=O)(CP(=O)(O)O)OC[C@H]1O[C@@H](n2nnc3c(NC4CCCC4)nc(Cl)nc32)[C@H](O)[C@@H]1O (stereo partly drawn) [Example 106, (((((2R,3S,4R,5R)-5-(5-chloro-7-(cyclopentylamino)-3H-[1,2,3]triazolo[4,5-d]pyrimidin-3-yl)-3,4-dihydroxytetrahydrofuran-2-yl)methoxy)(methoxy)phosphoryl)methyl) phosphonic acid] | ≥ 6.30
((((1R,2R,3S,4R)-4-(5-Chloro-7-(((R)-2,3-dihydro-1H-inden-1-yl)amino)-3H-[1,2,3]triazolo[4,5-d]pyrimidin-3-yl)-2,3-dihydroxycyclopentyl)methoxy)methyl)phosphonic acid [Example 23] | ≥ 6.30
